In test [1] the target is T1, full length BRD4 ZsGreen fusion protein (Homo sapiens, UniProt O60885).
T1 construct: CBP: CBP-bromodomain/BRD9; BRD4: full length BRD4; expressed in transfected cells
Description: Bromodomain chromatin release assay, BRD4 (U2OS, high content imaging). It is filed as cell-based. The following applies: 2 hr, n = 2 biological replicates ± SEM, read-out: IC50 (μM), BRD4 chromatin release (EC50). On the procedure:
As described previously ([Huang et al., 2014]), this assay monitors the compound-dependent release and aggregation of a fusion protein consisting of a bromodomain and the fluorescent protein ZsGreen. For the BRD4 chromatin release assay, U2OS cells capable of inducibly expressing the full-length BRD4 protein in fusion with ZsG were generated using the pLVT3G/ZsGreen-BRD4/TO3G vector and maintained in blasticidin at 15 μg/ml. […] Therefore, the bromodomain (BD) of CBP was cloned into full length BRD9 (replacing the BRD9 BD) in frame with a ZsGreen fluorescent tag (ZsG). U2OS cells capable of inducibly expressing the ZsGreen-CBPBD fusion protein were generated by lentiviral delivery of the pLVT3G/BRD9-ZsG-CBPBD/TO3G vector, which contains both the inducible fusion protein and the tet transactivator. Cells were selected and maintained in the presence of 15 μg/ml blasticidin. 5000 cells/well were seeded in 384-well imaging plates in the presence of 2 μg/ml doxycycline to induce the expression of ZsG-fusion proteins. After 16 hr of incubation with doxycycline, fresh media containing serial dilution of compounds were added to the cells for 2 hr at 37°C. Cells were fixed with 4% paraformaldehyde (PFA) dissolved in PBS for 15 min at room temperature. Images of cells were acquired using ImageXpress Micro (Molecular Devices, Inc.; Sunnyvale, CA) and processed with the Transfluor Module of MetaXpress software. Average pits per cell values were obtained from four adjacent images in each well with two technical replicates for each compound concentration. Dose-response curves were generated by plotting the average pits per cell values at each dose and EC50 values were calculated by a four-parameter non-linear regression model in GraphPad Prism.

For test [2], the target named is T2, first bromodomain of BRD4 (BRD4-BD1) (Homo sapiens, UniProt O60885).
T2 construct: the first bromodomain of BRD4 (BRD4-BD1)
As to the kind of experiment: AlphaLISA, acetylated peptide binding to BRD4-BD1. The following applies: BRD4-BD1, H4-TetraAc-biotin peptide; n ≥ 2 independent replicates. On the procedure: (§1) Compound at varying concentrations were dispensed into 384 well Proxiplates (Perkin Elmer) using Echo technology (Labcyte, Inc.; Sunnyvale, CA). For CBP assays, 0.5 μM His-Flag-tagged CBP bromodomain (amino acids 1082–1197) was incubated with 0.003 μM H4-TetraAc-biotin for 20 min at room temperature in 1x reaction buffer (50 mM HEPES pH 7.5, 1 mM TCEP, 0.069 mM Brij-35, 150 mM NaCl, and 0.1 mg/ml BSA). Streptavidin acceptor beads and nickel donor beads (Perkin Elmer) were added to 15 μg/ml with a Combi Multidrop dispenser. Plates were sealed and incubated at 90 min in the dark at room temperature, and plates were read on an Envision plate reader (Perkin Elmer) according to manufacturer’s instructions. For the BET assays, the protocol was similar except that BET family bromodomains were used at 0.03 μM (BRD4-BD1) and incubated with 0.2 μM H4-TetraAc-biotin for 20 min in reaction buffer (40 mM HEPES pH7.0, 1 mM DTT, 0.069 mM Brij-35, 40 mM NaCl, and 0.1 mg/ml BSA). Streptavidin donor beads and Anti-Flag Acceptor beads (Perkin Elmer) were added to 10 μg/ml, and then plates were sealed and incubated in the dark for 60 min prior to reading on the Envision.

Test [3] addresses T3, CBP bromodomain and histone H3.3 (Homo sapiens, UniProt Q92793).
T3 construct: NanoBRET with the isolated CBP bromodomain and histone H3.3 in 293 cells; host or cells: HEK293
Description: NanoBRET, CBP bromodomain/histone H3.3 in HEK293 cells. It is filed as cell-based. The following applies: NanoBRET, 293 cells. On the procedure: NanoBRET was carried out using the NanoBRET Protein:Protein Interaction System (Promega, Inc.; Madison, WI) according to the manufacturer’s instructions. Briefly, HEK293 cells were transiently co-transfected with a vector for histone H3.3-HaloTag and a NanoLuc tagged CBP bromodomain expression construct. Transfected cells were plated in 96 -well plates in the presence or absence of ligand, then treated with dose titrations of indicated compounds. Readings were performed on an Envision Plate Reader (Perkin Elmer, Inc.; Waltham, MA) and BRET readings were calculated by dividing the acceptor emission value (600 nm) by the donor emission value (460/50 nm).

For test [4], the target named is T4, CBP bromodomain (amino acids 1082–1197) (Homo sapiens, UniProt Q92793).
T4 construct: His-Flag-tagged CBP bromodomain (amino acids 1082–1197)
T4 sequence (Q92793 1082-1197): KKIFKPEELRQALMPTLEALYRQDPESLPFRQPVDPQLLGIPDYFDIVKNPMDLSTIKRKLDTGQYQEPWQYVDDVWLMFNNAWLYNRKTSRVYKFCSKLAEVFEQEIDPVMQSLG
Description: AlphaLISA, acetylated peptide binding to CBP bromodomain. Particulars: isolated CBP bromodomain, H4-TetraAc-biotin peptide; n ≥ 2 independent replicates. On the procedure:
as §1

Data on 1 compound can be found in paper PMC4775225, “Bromodomain inhibition of the transcriptional coactivators CBP/EP300 as a therapeutic strategy to target the IRF4 network in multiple myeloma” (eLife, 2016).

SMILES strings stand for the structures.

T3 sequence (Q92793 1085-1192 limits assumed): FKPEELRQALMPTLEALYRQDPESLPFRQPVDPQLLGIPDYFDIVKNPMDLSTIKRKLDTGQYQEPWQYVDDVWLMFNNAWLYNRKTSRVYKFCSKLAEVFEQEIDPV

Take `Cc1sc2c(c1C)C(c1ccc(Cl)cc1)=N[C@@H](CC(N)=O)c1nnc(C)n1-2` [CPI203]: the EC50 in test [1] is 0.05 ± 0.02 µM. The concentration for half-maximal inhibition (IC50) in test [2] worked out at 50 ± 10 nM; in test [4], 6500 ± 640 nM. Also, in test [3], the “dose-dependent inhibition of CBP-H3.3 binding” value is given as “did not display dose-dependent inhibition”.
